Test [1] deals with substance P receptors, IM9 cells. Conditions: substance P binding, Gitter et al. 1991; cited from earlier work.
Test [2] has as its target substance P receptors (bovine receptor). Conditions: 3H-SP binding on bovine caudal membrane, Snider et al. 1991; cited from earlier work.
Test [3] has as its system substance P receptors, U373 MG cells. Conditions: substance P binding, Gitter et al. 1991; cited from earlier work.
Test [4] has as its target substance P receptors (rat receptor). The note with it: 3H-SP binding on rat cortical membranes, Snider et al. 1991; cited from earlier work.
The test system of another test is substance P. Kind of test: substance P antagonism.
In test [5] the target is T1, substance P receptors on rat cortex (Rattus norvegicus, UniProt P14600).
T1 construct: in tests performed on rat cortex; from tissue; host or cells: rat cortex
T1 sequence (P14600 whole entry): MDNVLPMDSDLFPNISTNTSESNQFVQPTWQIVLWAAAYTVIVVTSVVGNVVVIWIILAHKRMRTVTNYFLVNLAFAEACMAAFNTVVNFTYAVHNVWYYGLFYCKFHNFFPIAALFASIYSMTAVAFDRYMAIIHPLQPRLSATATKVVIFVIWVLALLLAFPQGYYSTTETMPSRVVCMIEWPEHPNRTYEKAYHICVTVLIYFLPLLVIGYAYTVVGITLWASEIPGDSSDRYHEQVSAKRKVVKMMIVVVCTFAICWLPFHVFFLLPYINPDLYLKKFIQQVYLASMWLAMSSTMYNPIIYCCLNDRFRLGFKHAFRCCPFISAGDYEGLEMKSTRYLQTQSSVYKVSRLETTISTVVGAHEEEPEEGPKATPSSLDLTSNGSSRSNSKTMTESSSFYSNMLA
The test can be described thus: antagonism of the binding of substance P to its receptor, rat cortex. As for the experimental part: (§1) Thus the compounds according to the invention antagonize the binding of substance P to its receptor with a Ki of between 0.1 and 800 nM in tests performed on rat cortex and with a Ki of between 0.01 and 30 nM in tests performed on the lymphoblastic cell line IM9.

Test [6] concerns the target T2, substance P receptors on human cells of the IM9 line (Homo sapiens, UniProt P25103).
T2 construct: in tests performed on the lymphoblastic cell line IM9; endogenous in cells; host or cells: IM9 (human lymphoblastic cell line)
The test can be described thus: antagonism of the binding of substance P to its receptor, lymphoblastic cell line IM9. As for the experimental part: as §1

In a further test the test system is neurokinin receptors. Kind of test: affinity for the neurokinin receptors. The format is binding.
A further test deals with NK1 receptor. Conditions: agonist; D. Regoli 1988 and 1989; cited from earlier work.

Data on 3 molecules can be found in patent publication US5674881A, “Quaternary ammonium salts of aromatic amine compounds, their preparation and pharmaceutical compositions in which they are present” (Elf Sanofi, priority 1992, dated 1997).

T2 sequence (P25103 whole entry): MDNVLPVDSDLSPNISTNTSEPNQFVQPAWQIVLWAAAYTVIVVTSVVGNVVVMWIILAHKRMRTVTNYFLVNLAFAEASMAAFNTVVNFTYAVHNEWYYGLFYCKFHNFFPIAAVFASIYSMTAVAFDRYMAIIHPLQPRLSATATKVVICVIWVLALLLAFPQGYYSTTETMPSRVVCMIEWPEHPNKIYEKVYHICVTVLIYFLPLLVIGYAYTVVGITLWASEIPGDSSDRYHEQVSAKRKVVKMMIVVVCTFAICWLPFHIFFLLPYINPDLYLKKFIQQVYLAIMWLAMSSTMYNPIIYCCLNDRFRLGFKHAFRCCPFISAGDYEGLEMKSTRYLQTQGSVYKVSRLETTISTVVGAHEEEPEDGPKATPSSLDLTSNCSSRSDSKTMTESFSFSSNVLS

Broadly, the Ki is the dissociation constant of the complex between target and ligand, obtained from inhibition or displacement. As to `COc1ccccc1CN[C@H]1C2CCN(CC2)[C@H]1C(c1ccccc1)c1ccccc1` [CP 96,345], the Ki in test [1] is 0.4 nM; in [2], 3 nM; in test [3], 0.4 nM; in test [4], 240 nM.

Consider `CC(C)Oc1cccc(CC(=O)N(C)CC(CCN2CCC(c3ccccc3)CC2)c2ccc(Cl)c(Cl)c2)c1` (stereo not drawn) [(I'b), N-Methyl-N-[4-(4-phenylpiperidin-1-yl)-2-(3,4-dichlorophenyl)butyl]-3-isopropoxyphenylacetamide], for which, in the test on substance P, the “substance P antagonism” value was “powerful substance P antagonists”. The Ki in [5] and in [6] was 0.3 to 0.6 nM throughout. Further, the “affinity for the neurokinin receptors” value with neurokinin receptors was “very high affinity”.

On to [Sar^9, Met-(O2)^11 ]-SP, for which the “selectivity for the NK1 receptor” value with NK1 receptor is listed as “selective”.
